{
  "source": "ChEMBL document CHEMBL1201862",
  "about": "“PubChem BioAssay data set” (2004)",
  "key": {"[1]": {"experiment": "viability loss in HepG2 hepatoma cells – cell-based, ATP luminescence, cherry-pick, activator set 2, cytotoxicity control, dose response (AID 1053143)", "format": "functional"}, "Major prion protein": {"target": "Major prion protein (Homo sapiens, UniProt P04156)", "format": "functional, cell-based"}, "[2]": {"target": "Glyceraldehyde-3-phosphate dehydrogenase (Homo sapiens, UniProt P04406)"}, "[3]": {"experiment": "M. tuberculosis H37Rv growth inhibitors, H37Rv strain (AID 1626)", "format": "functional"}, "[4]": {"target": "T1, Calpain-2 catalytic subunit (Sus scrofa, UniProt P43367)", "T1 sequence (P43367 whole entry)": "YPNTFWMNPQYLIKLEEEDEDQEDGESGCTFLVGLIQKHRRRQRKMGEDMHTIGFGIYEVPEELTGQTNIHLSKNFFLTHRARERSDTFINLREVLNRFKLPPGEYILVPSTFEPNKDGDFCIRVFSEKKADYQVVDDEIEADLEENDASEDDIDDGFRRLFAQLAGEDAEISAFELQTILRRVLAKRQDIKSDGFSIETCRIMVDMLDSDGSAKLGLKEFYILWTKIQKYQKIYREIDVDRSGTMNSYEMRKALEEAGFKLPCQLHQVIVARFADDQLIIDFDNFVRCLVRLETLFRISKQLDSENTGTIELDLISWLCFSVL", "experiment": "m-calpain protease blockers, concentration series – biochemical, fluorogenic peptide substrate, dose response (AID 1420)", "format": "functional"}, "[5]": {"target": "T2, Rac GTPase-activating protein 1 (Homo sapiens, UniProt Q9H0H5)", "T2 sequence (Q9H0H5 whole entry)": "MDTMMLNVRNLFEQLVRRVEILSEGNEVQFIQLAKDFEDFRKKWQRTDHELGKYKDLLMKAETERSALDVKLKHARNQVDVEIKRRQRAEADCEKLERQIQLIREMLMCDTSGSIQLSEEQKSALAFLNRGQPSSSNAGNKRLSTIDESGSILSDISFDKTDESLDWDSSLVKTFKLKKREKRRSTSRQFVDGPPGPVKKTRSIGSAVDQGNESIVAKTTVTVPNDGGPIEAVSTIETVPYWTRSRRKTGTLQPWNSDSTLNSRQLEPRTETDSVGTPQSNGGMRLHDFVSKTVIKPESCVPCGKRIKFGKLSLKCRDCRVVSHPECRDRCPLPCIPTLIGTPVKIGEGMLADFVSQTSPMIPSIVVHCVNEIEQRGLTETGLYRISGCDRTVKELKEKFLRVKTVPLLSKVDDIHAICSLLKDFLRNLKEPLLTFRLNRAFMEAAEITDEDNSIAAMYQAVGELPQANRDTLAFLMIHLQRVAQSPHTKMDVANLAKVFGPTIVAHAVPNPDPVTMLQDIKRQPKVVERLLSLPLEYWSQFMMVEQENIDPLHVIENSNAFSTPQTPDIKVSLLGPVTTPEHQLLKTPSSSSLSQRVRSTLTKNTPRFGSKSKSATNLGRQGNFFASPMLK", "experiment": "blockers of MgcRacGAP-driven Rac1 GTP hydrolysis – biochemical, ADP Hunter fluorescence, primary and confirmatory, confirmation (AID 624330)", "format": "functional"}, "[6]": {"experiment": "Luminescence-based counterscreen assay for KLF5 inhibitors: dose response cell-based high throughput screening assay to identify cytotoxic compounds using the IEC-6 intestinal epithelial cell line. [Related pubchem assays: 1700 (Primary screen.), 1834 (Confirmation screen.), 1858 (Summary AID.), 1905 (Counterscreen.)]", "format": "functional"}, "[7]": {"experiment": "loss of viability in HepG2 cells – cell-based, CellTiter-Glo, cherry-picked, cytotoxicity control for Shn3 inhibitor project, dose response (AID 624134)", "format": "functional"}, "[8]": {"experiment": "non-specific 3'UTR reporter inhibition in Clone20-Shn3RL – cell-based, Renilla luciferase, cherry-picked, counter-screen for Shn3 inhibitor project, dose response (AID 624133)", "format": "functional"}, "Protein Wnt-3a": {"target": "Protein Wnt-3a (Mus musculus, UniProt P27467)", "experiment": "antagonism of Wnt3a pathway luciferase reporter – Wnt-LIGHT cells, luminescence, selectivity assay for Gli-SUFU antagonist project, dose response (AID 651570);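 also: Wnt-LIGHT reporter cells stimulated with conditioned medium from Wnt3a-producing cells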", "format": "functional", "conditions": "read-out: IC50_Mean"}, "[9]": {"target": "T3, COUP transcription factor 2 (Homo sapiens, UniProt P24468)", "T3 sequence (P24468 whole entry)": "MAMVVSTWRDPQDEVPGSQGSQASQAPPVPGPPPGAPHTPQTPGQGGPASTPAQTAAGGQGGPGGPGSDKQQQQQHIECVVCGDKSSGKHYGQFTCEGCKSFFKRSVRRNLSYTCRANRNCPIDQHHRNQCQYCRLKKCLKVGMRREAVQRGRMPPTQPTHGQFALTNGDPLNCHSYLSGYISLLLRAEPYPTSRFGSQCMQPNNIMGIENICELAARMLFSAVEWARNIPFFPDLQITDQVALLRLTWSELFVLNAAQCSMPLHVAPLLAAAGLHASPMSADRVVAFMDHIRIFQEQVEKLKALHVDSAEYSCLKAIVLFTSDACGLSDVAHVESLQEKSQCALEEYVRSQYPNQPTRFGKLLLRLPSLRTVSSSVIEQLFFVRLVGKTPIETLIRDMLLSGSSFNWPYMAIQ", "experiment": "Luminescence-based cell-based high throughput dose response assay to identify inhibitors of COUP-TFII (NR2F2).", "format": "functional"}, "[10]": {"experiment": "decrease of insulin promoter-GFP reporter – imaging, high-content screening, mouse beta cells (AID 1628)", "format": "functional", "conditions": "MIN6"}, "[11]": {"experiment": "MIN6 cell viability loss – mouse insulinoma, cytotoxicity control, dose response (AID 2122);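 also: confirmatory high-throughput counterscreen run to flag cytotoxic compounds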", "format": "functional"}, "[12]": {"experiment": "viability of PTEN-deleted HCT116 cells – cell-based, HCT116 PTEN knockout, dose response (AID 1047);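 also: cells exposed to compound for 60 hours before readout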", "format": "functional"}, "[13]": {"experiment": "viability of HCT116 lacking mutant beta-catenin – cell-based, human colon tumor, dose response (AID 1045);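 also: cells exposed to compound for 60 hours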", "format": "functional"}, "[14]": {"experiment": "reduced cellular PGC1a acetyl-lysine signal – cell-based, cherry-picked samples, dose response (AID 720514);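 also: potency may reflect raised or lowered acetylation signal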", "format": "functional"}, "[15]": {"experiment": "Luminescence Cell-Based Dose Retest to Confirm Inhibitors of Cancer Stem Cells. [Related pubchem assays (depositor defined):AID2717, AID2721]", "format": "functional", "conditions": "Homo sapiens"}, "Protein Tat": {"target": "T4, Protein Tat (Human immunodeficiency virus type 1 group M subtype B (isolate HXB2)(HIV-1), UniProt P04608)", "T4 sequence (P04608 whole entry)": "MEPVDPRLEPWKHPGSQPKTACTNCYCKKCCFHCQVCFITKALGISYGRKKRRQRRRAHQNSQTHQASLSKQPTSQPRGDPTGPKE", "format": "functional"}, "[16]": {"experiment": "HIV-1 Vif–A3G interaction blockers – biochemical, TR-FRET, GST-Vif 1-94, biotin-A3G peptide, dose response retest, primary screen (AID 1117319);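 also: TR-FRET signal of purified GST-Vif binding a biotinylated A3G peptide; inhibitors lower the FRET signal by blocking Vif and A3G binding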", "format": "functional"}, "[17]": {"experiment": "reduction of Shn3 3'UTR-driven luciferase in osteoblasts – cell-based, Clone20 osteoblasts, firefly luciferase, cherry-picked, dose response (AID 624132)", "format": "functional"}, "[18]": {"experiment": "HGIII-sPLA2 enzyme inhibition potency – biochemical, QFRET, IC50, dose response (AID 743457);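 also: green fluorescence rise as the enzyme cleaves BODIPY PC-A2 in liposomes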"}, "[19]": {"experiment": "A549 cell cytotoxicity, dose response, cytotoxicity control, plate reader, cherry-pick, antagonist series (AID 743412)", "format": "functional, cell-based"}, "[20]": {"experiment": "blockers of bursicon-stimulated LGR2 cAMP reporter – cell-based, HEK293, CRE-luciferase reporter, cherry pick, set 2, dose response (AID 743343);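 also: transfected cells were stimulated with diluted bursicon conditioned medium after compound addition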", "format": "functional"}, "[21]": {"experiment": "blockade of melanocortin 4 receptor signaling – cell-based, plate reader, cherry pick, counter-screen for LGR2 antagonist project, dose response (AID 743444);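 also: transfected HEK 293 cells stimulated with alpha-MSH peptide; potency of inhibitors of the alpha-MSH evoked signal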", "format": "functional"}},
  "note": "Activity calls are given as the source filed them.",
  "data": [
    {"compound": "Cc1cc(NC(=O)c2ccccc2)ncc1NC(=O)c1ccco1", "values": [
      {"measurement": "AC50", "setting": "[1]", "value": "26 µM (active)"}
    ]},
    {"compound": "NC(=O)c1ccc(-c2ccc(Br)cc2)o1", "values": [
      {"measurement": "IC50", "setting": "Major prion protein", "value": "7.42 µM (active)"},
      {"measurement": "IC50", "setting": "cells", "value": "> 138 µM (inactive)"}
    ]},
    {"compound": "COC(=O)CSc1nc(Cc2ccccc2)nc2ccccc12", "values": [
      {"measurement": "IC50", "setting": "Major prion protein", "value": "3.29 µM (active)"},
      {"measurement": "IC50", "setting": "cells", "value": "> 138 µM (inactive)"}
    ]},
    {"compound": "O=C1C(Cl)=C(N2CCN(CCOCCO)CC2)C(=O)N1c1cccc(C(F)(F)F)c1", "values": [
      {"measurement": "IC50", "setting": "[2]", "value": "> 50 µM (inconclusive)"}
    ]},
    {"compound": "COCC(=O)Nc1ccc(Br)c(C)c1", "values": [
      {"measurement": "IC50", "setting": "[3]", "value": "> 100 µM (active)"}
    ]},
    {"compound": "COc1ccc(NC(C)c2cc(Cl)ccc2O)cc1", "note": "(stereo unspecified)", "values": [
      {"measurement": "IC50", "setting": "[3]", "value": "> 100 µM (active)"},
      {"measurement": "IC50", "setting": "[4]", "value": "13.9 µM (not active)"},
      {"measurement": "IC50", "setting": "[5]", "value": "69.1 µM (active)"}
    ]},
    {"compound": "CC(C)CC(NC(=O)CCCNC(=O)CCC(=O)OC1O[C@H]2OC3(C)CC[C@H]4[C@H](C)CCC(C1C)C24OO3)C(=O)O", "note": "(stereo partly specified)", "values": [
      {"measurement": "IC50", "setting": "[6]", "value": "31.8 µM (not active)"},
      {"measurement": "AC50", "setting": "[7]", "value": "> 70 µM (inactive)"},
      {"measurement": "AC50", "setting": "[8]", "value": "5.65 µM (active)"},
      {"measurement": "IC50", "setting": "Protein Wnt-3a", "value": "0.304 µM (active)"},
      {"measurement": "IC50", "setting": "[9]", "value": "> 85.4 µM (inactive)"}
    ]},
    {"compound": "COc1ccc(C(NC(=O)c2c(F)c(F)c(F)c(F)c2F)c2ccccc2)cc1", "note": "(stereo unspecified)", "values": [
      {"measurement": "IC50", "setting": "[10]", "value": "1.79 µM (active)"},
      {"measurement": "IC50", "setting": "[11]", "value": "1.7 µM (active)"},
      {"measurement": "EC50", "setting": "[12]", "value": "27.4 µM (active)"},
      {"measurement": "EC50", "setting": "[13]", "value": "16.8 µM (active)"},
      {"measurement": "AC50", "setting": "[14]", "value": "4.77 µM (active)"}
    ]},
    {"compound": "COCCNc1nnc(SC(C)C(=O)Nc2ccc(-c3nc4ccc(C)cc4s3)cc2)s1", "note": "(stereo unspecified)", "values": [
      {"measurement": "EC50", "setting": "[12]", "value": "30 µM (active)"},
      {"measurement": "EC50", "setting": "[13]", "value": "39.1 µM (active)"},
      {"measurement": "AC50", "setting": "[15]", "value": "10.5 µM (active)"},
      {"measurement": "IC50", "setting": "Protein Tat", "value": "> 100 µM (active)"},
      {"measurement": "IC50", "setting": "[16]", "value": "> 50 µM (active)"}
    ]},
    {"compound": "O=C1/C(=C/c2ccccn2)SC(=S)N1Nc1ncc(C(F)(F)F)cc1Cl", "values": [
      {"measurement": "AC50", "setting": "[17]", "value": "49.9 µM (active)"},
      {"measurement": "AC50", "setting": "[8]", "value": "33.1 µM (active)"},
      {"measurement": "IC50", "setting": "[18]", "value": "47.8 µM (inactive)"}
    ]},
    {"compound": "N#C[C@@H]1[C@H](c2ccc(C#CC3CCCCC3)cc2)[C@@H](CO)N1S(=O)(=O)c1ccccc1", "values": [
      {"measurement": "AC50", "setting": "[19]", "value": "27.9 µM (active)"},
      {"measurement": "AC50", "setting": "[20]", "value": "12.8 µM (active)"},
      {"measurement": "AC50", "setting": "[21]", "value": "8.18 µM (active)"}
    ]}
  ]
}
